Measurements from patent US20190309323A1, “PROMOTER WITH AN ENRICHED CYTOSINE-GUANINE DINUCLEOTIDE REGION, VECTORS, CELLULAR LINES, METHOD FOR PRODUCING RECOMBINANT PROTEIN” (UNIVERSIDAD DE CHILE, priority 2016, published 2019).

B1: RegCG: 1147 bp fragment of Cricetulus griseus β-actin promoter rich in cytosine-guanine dinucleotides, SEQ ID NO. 5 (nucleic acid)
DNA: GGAGAGGGGGTAAAAAAATGCTGCACTGTGCGGCTAGGCCGGTGAGTGAGCGGCGCGGAGCCAATCAGCGCTCGCCGTTCCGAAAGTTGCCTTTTATGGCTCGAGTGGCCGCTGTGGCGTCCTATAAAACCCGGCGGCGCAACGCGCAGCCACTGTCGAGTCCGCGTCCACCCGCGAGCACAGGCCTTTCGCAGCTCTTTCTTCGCCGCTCCACACCCGCCACCAGGTAAGCAGGGACAACAGGCCCAGCCGGCCACAGCCCTCCCGTGGGCAGTGACCGCGCTGCAGGGTCGCGGGGGACACTCGGCGCGGACACCGGGGAAGGCTGGAGGGTGGTGCCGGGCCGCGGAGCGGACACTTTCAGATCCAACTTTCAGTCCAGGGTGTAGACCCTTTACAGCCGCATTGCCACGGTGTAGACACCGGTGGACCCGCTCTGGCTCAGAGCACGCGGCTTGGGGGAACCCATTAGGGTCGCAGTGTGGGCGCTATGAGAGCCGATGCAGCTTTCGGGTGTTGAACCGTATCTGCCCACCTTGGGGGGAGGACACAAGGTCGGGAGCCAAACGCCACGATCATGCCTTGGTGGCCCATGGGTCTTTGTCTAAACCGGTTTGCCCATTTGGCTTGCCGGGCGGGCGGGCGCGGCGGGCCCGGCTCGGCCGGGTTGGGGGCTGGGTTGCCACTGCGCTTGCGCGCTCTATGGCTGGGTATTGGGGCGCGTGCACGCTGGGGAGGGAGCCCTTCCTCTTCCCCCTCTCCCAAGTTAAACTTGCGCGTGCGTATTGAGACTTGGAGCGCGGCCACCGGGGTTGGGCGAGGGCGGGGCCGTTGTCCGGAAGGGGCGGGGTCGCAGCGGCTTCGGGGCGCCTGCTCGCGCTTCCTGCTGGGTGTGGTCGCCTCCCGCGCGCGCACTAGCCGCCCGCCGGCGGGGCGAAGGCGGGGCTTGCGCCCGTTTGGGGAGGGGGCGGAGGCCTGGCTTCCTGCCGTGGGGCCGCCTCCGGACCAGCGTTTGCCTCTTATGGTAATAACGCGGCCGGCCTGGGCTTCCTTTGTCCCCTGAGTTTGGGCGCGCGCCCCCTGGCGGCCCGAGGCCGCGGCTTGCCGGAAGTGGGCAGGGCGGCAGCGGCTGCGCCTAGTGGCCCGCCAGTGACCGCGACCCTCTTTTGTGCCCTGATATAGTTCGCC
modifications: Promoter

Tested on: CHO-K1 cells
Test: Transient transfection Dual-Glo luciferase assay (Luc/Ren)
Type: cell-based, Chinese hamster
Details: FIG. 9
Description: Furthermore, the effect of addition of the promoter on luciferase activity in transient transfections was determined. CHO-K1 cells were grown to reach 90% confluence were co-transfected using Lipofectamine CD (Invitrogen. EEU U), with the normalization vector pGL4.73 (Promega. USA) expressing Renilla luciferase reniformis (Ren), under the control of SV40 promoter, and with experimental vectors Seq1-Luc (SEQ ID No.: 2), Seq4-Luc (SEQ ID No.: 35) and Seq5-Luc (SEQ ID No.: 36) expressing Photinus pyralis luciferase (Luc), under the control of the promoters studied and pGL4.17 (base vector without promoter).
CHO-K1 cells were cultured in 24-well plates in DMEM-F12 medium (Gibco) supplemented with fetal bovine serum (FBS) (HyClone) 10%, at 37° C. and 5% CO2, inoculating 300,000 cells/mL for 24 hours, or up to between 80 to 90% confluency. […] To analyze the activity of the reporter gene transfections, the “Dual-Glo Luciferase Assay System (Promega. USA)” (Promega) was used following the manufacturer's instruction, where from cell lysate its measurable sequentially luciferase activity firefly expressed as reporters vectors and activity of renilla luciferase expressed by the normalizer vector. Both activities were mediated by quantifying luminiscence read on a Lumininometer, model Luminoskan ASECNT (Thermo Electronic Corporation). […]

Molecule | relative luciferase activity in transient transfection
Seq5-Luc: reporter vector SEQ ID No. 36 under control of the minimal portion of CMV or Core CMV [reference compound] | lowest activity
B1 | has transcriptional activity
